Structures are written as SMILES. Values joined by “and” are separate entries in the source; they are usually repeats but may differ in a detail not shown here. Equal values may be shown once.

Data on five molecules can be found in PubChem BioAssay AID2060603 (Molecular Pharmacology Branch, DTP, NCI, 2025).

For the experiment, the system named is 422866-222-R5-J1-PDC spheroid viability. Put plainly: Anticancer human tumor 422866-222-R5-J1-PDC patient-derived pancreatic adenocarcinoma cell line growth inhibition [CLK]. To be noted: spheroids with HUVEC and MSC; for viability, T/C: stronger effect = lower value. From the text:
A high-throughput screen of multi-cell type tumor spheroids was designed to identify active combinations of […] and targeted small molecules. Complex spheroids include a stromal component modeled by human endothelial cells (HUVEC) and fibroblasts modeled by human mesenchymal stem cells (MSCs). The concentration ranges selected for each drug and investigational agent were based upon clinically achievable concentrations if the clinical Cmax of the agent was known.
Compounds. The drugs and investigational agents: cirtuvivint (SM08502; NSC835563), CC-671 (NSC850746), vemurafenib (NSC761431), tapotoclax (NSC804041), sotorasib (NSC818433), adagrasib (NSC831453), MRTX-1133 (NSC836407), BAY2416964 (NSC825713), copanlisib (NSC816437), inavolisib (NSC800729), abemaciclib (NSC768073), osimertinib (NSC779217), entinostat (NSC756642), eltanexor (KPT-8602, NSC794443), venetoclax (NSC766270), ceralasertib (NSC777638), bortezomib (NSC756655), olaparib (NSC753686), talazoparib (NSC767125), alisertib (NSC759677), peposertib (NSC802822), gemcitabine (NSC613327), 5-fluorouracil (NSC19893), SN-38 (NSC673596), oxaliplatin (NSC266046), paclitaxel (NSC125973), and doxorubicin (NSC123127), were obtained from the National Cancer Institute (NCI) Developmental Therapeutics Program Chemical Repository. The FDA-approved anticancer drug set is available from the Developmental Therapeutics Program at https://dtp.cancer.gov/organization/dscb/obtaining/available plates.htm. […] The stock solutions were prepared in dimethyl sulfoxide (DMSO, Sigma-Aldrich, St. Louis, MO, cat. D2650), except for the platinum complexes which were prepared in saline (Quality Biological, Gaithersburg, MD, cat. 114-055-101), at 800-fold the tested concentration and stored at -70 degrees C prior to their use. All drugs and investigational agents were tested over a range starting from a high concentration at or near the clinical Cmax and decreasing in half-log increments. If the clinical Cmax for an agent had not been determined, the highest concentration tested was 10 microM.
Cell Culture. All cells were maintained in an incubator at 37 degrees C and 5% CO2 with 95% humidity. The PDC lines were cultured according to standard operating procedures established by the NCI PDMR. Briefly, all PDCs were thawed and cultured in Matrigel-coated flasks prepared with a working solution of 1X Ham's F-12 nutrient mix, without supplementation (Invitrogen, Waltham, MA, cat. 11765054), 100 U/mL penicillin-streptomycin (Invitrogen, cat. 15140122), and 2.5% Matrigel (Corning Inc., Corning, NY, cat. 354248) for the first three passages. The 947758-054-R-J2-PDC line was cultured in 6B/Colon 1A media, which includes advanced DMEM/F-12 (Thermo Fisher Scientific, cat. 12634028), 10 mM HEPES (Thermo Fisher Scientific, cat. 15630080), 1X GlutaMAX supplement (Thermo Fisher Scientific, cat. 35050061), 0.1 mg/mL primocin (InvivoGen, cat. ant-pm-2), 10% defined fetal bovine serum, heat inactivated (HyClone Laboratories Inc., cat. SH30070.03HI), 1.25 mM N-Acetyl-L-cysteine (Sigma-Aldrich, cat. A9165), 10 mM nicotinamide (Sigma-Aldrich, cat. N0636), 1X B-27 supplement (Thermo Fisher Scientific, cat. 17504044), 1X N-2 supplement (Thermo Fisher Scientific, cat. 17502048), and 10 microM Y-27632 dihydrochloride (Tocris Bioscience, cat. 1254). The 876862-298-R-J1-PDC was cultured in 6E media, which includes all 6B/Colon 1A media components plus 50% L-WRN conditioned media (ATCC, cat. CRL-3276), 50 ng/mL recombinant human EGF recombinant protein (hEGF; Thermo Fisher Scientific, cat. PHG0311), 10 ng/mL recombinant human fibroblast growth factor 10 (hGFG-10; PeproTech, cat. 100-26), 1 ng/mL recombinant human fibroblast growth factor 2 (hFGF-2; PeproTech, cat. 100-18B), and 1 µM prostaglandin E2 (PGE2; Tocris, cat. 2296). The 227483-062-R1-J1-PDC line was cultured in Panc media, containing all 6E components except hFGF-2, with the addition of 500 nM SB-431542 (Selleckchem, cat. S1067) and 10 nM gastrin (Tocris, cat. 3006). […]
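Note: spheroids exposed to agents for seven days before readout.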

Consider `CCN1CCN(Cc2ccc(Nc3ncc(F)c(-c4cc(F)c5nc(C)n(C(C)C)c5c4)n3)nc2)CC1` + CNC(=O)c1ccc(Nc2nc(OC3CCCC3)c3c(-c4ccc5nc(C)oc5c4)c[nH]c3n2)c(OC)c1, for which the IC50 (usually the midpoint of a concentration-inhibition curve) reads like this: (curve of first compound, second compound 0.0316 µM) over 1000 nM; (curve of first compound, second compound 0.1 µM) over 1000 nM; (curve of first compound, second compound 0.316 µM) over 1000 nM; (curve of first compound, second compound 1 µM) over 1000 nM; (curve of first compound, second compound 3.16 µM) over 1000 nM; (curve of first compound, second compound 10 µM) over 1000 nM. The viability, T/C (commonly the ratio of treated to control) by setting is: (second compound 0.0316 µM, first compound 0.00316 µM) 96.2%; (second compound 0.0316 µM, first compound 0.01 µM) 111%; (second compound 0.0316 µM, first compound 0.0316 µM) 79%; (second compound 0.0316 µM, first compound 0.1 µM) 73.5%; (second compound 0.0316 µM, first compound 0.316 µM) 80.9%; (second compound 0.0316 µM, first compound 1 µM) 96.2%. Besides, the viability, T/C runs as follows: (second compound 0.1 µM, first compound 0.00316 µM) 81.5%; (second compound 0.1 µM, first compound 0.01 µM) 84.5%; (second compound 0.1 µM, first compound 0.0316 µM) 72.1%; (second compound 0.1 µM, first compound 0.1 µM) 64.4%; (second compound 0.1 µM, first compound 0.316 µM) 77.5%; (second compound 0.1 µM, first compound 1 µM) 88.9%. The viability, T/C reads like this: (second compound 0.316 µM, first compound 0.00316 µM) 67.5%; (second compound 0.316 µM, first compound 0.01 µM) 58.9%; (second compound 0.316 µM, first compound 0.0316 µM) 60.5%; (second compound 0.316 µM, first compound 0.1 µM) 59.3%; (second compound 0.316 µM, first compound 0.316 µM) 65.3%; (second compound 0.316 µM, first compound 1 µM) 71.9%. The viability, T/C is, setting by setting: (second compound 1 µM, first compound 0.00316 µM) 72%; (second compound 1 µM, first compound 0.01 µM) 62.8%; (second compound 1 µM, first compound 0.0316 µM) 59.2%; (second compound 1 µM, first compound 0.1 µM) 47.9%; (second compound 1 µM, first compound 0.316 µM) 62.8%; (second compound 1 µM, first compound 1 µM) 65.6%. Besides, the viability, T/C reads like this: (second compound 3.16 µM, first compound 0.00316 µM) 65.2%; (second compound 3.16 µM, first compound 0.01 µM) 51.5%; (second compound 3.16 µM, first compound 0.0316 µM) 56.2%; (second compound 3.16 µM, first compound 0.1 µM) 56.2%; (second compound 3.16 µM, first compound 0.316 µM) 66.5%; (second compound 3.16 µM, first compound 1 µM) 67.9%. Besides, the viability, T/C is, setting by setting: (second compound 10 µM, first compound 0.00316 µM) 54.6%; (second compound 10 µM, first compound 0.01 µM) 62.1%; (second compound 10 µM, first compound 0.0316 µM) 54.5%; (second compound 10 µM, first compound 0.1 µM) 58.6%; (second compound 10 µM, first compound 0.316 µM) 63.2%; (second compound 10 µM, first compound 1 µM) 74.2%.

Regarding `CC(Nc1ccc2c(c1)OCCn1cc(N3C(=O)OCC3C(F)F)nc1-2)C(N)=O` (stereo not given), the viability, T/C is 76.1% and 62.1% (compound 0.0316 µM); 67.9% and 53.8% (compound 0.1 µM); 46.1% and 36.7% (compound 0.316 µM); 42.5% and 38.5% (compound 1 µM); 34.2% and 31.7% (compound 3.16 µM); 32% and 27.6% (compound 10 µM). For the same molecule, the IC50 (curve of compound) is 308 nM and 113 nM.

On to `CC1(C)CCC(CN2CCN(c3ccc(C(=O)NS(=O)(=O)c4ccc(NCC5CCOCC5)c([N+](=O)[O-])c4)c(Oc4cnc5[nH]ccc5c4)c3)CC2)=C(c2ccc(Cl)cc2)C1`, for which the viability, T/C is, setting by setting: (compound 0.0316 µM) 89.7% and 94.5%; (compound 0.1 µM) 95.6% and 97.1%; (compound 0.316 µM) 103% and 77.2%; (compound 1 µM) 105% and 92.1%; (compound 3.16 µM) 99.1% and 120%; (compound 10 µM) 69.8% and 69%. In addition, for the setting “curve of compound”, the concentration for half-maximal inhibition (IC50) is over 10000 nM.

Take `COc1ccc([C@@H](O)c2cc(-c3ncnc4cc(N5CCOCC5)ccc34)c(F)cc2Cl)nn1`: the viability, T/C runs as follows: (compound 0.0316 µM) 88.1% and 94.1%; (compound 0.1 µM) 105% and 99%; (compound 0.316 µM) 80.7% and 76.8%; (compound 1 µM) 66.4% and 61.3%; (compound 3.16 µM) 47.2% and 38.6%; (compound 10 µM) 35.5% and 29.1%. Under “curve of compound”, the IC50 is 2500 nM and 1710 nM.

`CCc1c2c(nc3ccc(O)cc13)-c1cc3c(c(=O)n1C2)COC(=O)[C@]3(O)CC`: the viability, T/C runs as follows: (compound 0.00316 µM) 45.8% and 52.3%; (compound 0.01 µM) 37% and 43.1%; (compound 0.0316 µM) 44% and 44.3%; (compound 0.1 µM) 47.2% and 45.5%; (compound 0.316 µM) 41.7% and 43.5%; (compound 1 µM) 19.9% and 18.4%. Further, the IC50 (curve of compound) was under 3.16 nM.
